How the values were obtained:
[1] = test system: airway-constriction reaction; experiment: Inhibitory effect on airway-constriction reaction (in vivo), modified Konzet-Lössler method, acetylcholine-elicited; settings: Cavia porcellus, iv; test compound 100 mg/2 ml/kg in 1% CMC through esophageal cannula; acetylcholine 20 µg/kg i.v. at 15, 30, 60 and 120 minutes; anesthetized guinea pigs; read-out: Inhibitory rate (%) Acetylcholine
Procedure: (§1) A group of 6 male Hartley albino guinea pigs (250 to 350 g) was anesthetized with pentobarbital, and the tracheae, esophagi, carotid arteries and jugular veins thereof were cannulated. The experiment was performed by connecting the tracheotomic cannula to a respirator incorporated into a circuit of a bronchospasm transducer (modified Konzet-Lössler method), arresting the spontaneous respiration of each guinea pig with choline chloride succinate (1 mg/kg i.v.) and then practicing artificial ventilation, and an airway-constriction reaction was determined by using an overflow rate of ventilation as an index. Acetylcholine (20 µg/kg) or histamine (20 µg/kg) was intravenously administered upon elapsed time of 15, 30, 60 and 120 minutes after a test compound (100 mg/2 ml/kg) suspended in 1% CMC was administered through the esophageal cannula, thereby observing the airway-constriction reaction elicited. For the sake of comparison, theophylline (100 mg/2 ml/kg) commonly and widely used in the treatment for asthma was used. The inhibitory effect on the airway-constriction reaction was expressed by a value calculated as an inhibitory rate (%). It turns out that all the compounds according to the present invention have an excellent inhibitory effect on airway constriction.

[2] = test system: airway-constriction reaction; experiment: Inhibitory effect on airway-constriction reaction (in vivo), modified Konzet-Lössler method, histamine-elicited; settings: Cavia porcellus, iv; test compound 100 mg/2 ml/kg in 1% CMC through esophageal cannula; histamine 20 µg/kg i.v. at 15, 30, 60 and 120 minutes; anesthetized guinea pigs; read-out: Inhibitory rate (%) Histamine
Procedure: as §1

trachea [3] = experiment: Tracheodilative effect (in vitro), Magnus method, trachea strips contracted with histamine; settings: Cavia porcellus; relaxation of guinea pig trachea strips contracted with 3 x 10^-6 M histamine; maximum relaxation by 10^-4 M isoproterenol = 100%; read-out: pIC50 value Histamine (converted)
Procedure: (§2) With respect to Compound 2, Compound 5, Compound 6, Compound 7 and Compound 16, the tracheodilative effect useful in treatment and/or prevention of respiratory diseases such as asthma was investigated by the Magnus method. A male Hartley albino guinea pig (250 to 300 g) was blow on the head and exsanguinated to death to enucleate its trachea. Strip specimens were prepared from the trachea. Each of the specimens was suspended in a Magnus tube filled with a Krebs-Henseleit solution kept at 37°C with supply of a mixed gas (95% O2, 5% CO2). A static tension of 1.0 g was loaded to record an isometric tension. Each of test compounds was cumulatively administered to the specimens separately contracted with 1 x 10^-6 M carbachol and 3 x 10^-6 M histamine to investigate its relaxing effect. After the cumulative administration, 10^-4 M isoproterenol was administered to identify the maximum relaxing effect on the trachea specimen. The maximum relaxation was regarded as 100%, and a negative logarithmic value of the concentration of the test compound, at which the specimen was relaxed by 50%, was calculated out, thereby regarding it as a pIC50 value. […]

trachea [4] = experiment: Tracheodilative effect (in vitro), Magnus method, trachea strips contracted with carbachol; settings: Cavia porcellus; relaxation of guinea pig trachea strips contracted with 1 x 10^-6 M carbachol; maximum relaxation by 10^-4 M isoproterenol = 100%; read-out: pIC50 value Carbachol (converted)
Procedure: as §2

trachea [5] = experiment: Tracheodilative effect (in vitro), Magnus method, enucleated trachea contracted with LTD4; settings: Cavia porcellus; relaxation of enucleated guinea pig trachea contracted with LTD4 3 x 10^-8 M; read-out: pIC50 value LTD4 (converted)
Procedure: as §2
The pIC50 values of the compounds according to the present invention on contraction by LTD4 (concentration: 3 x 10^-8 M) were determined by using the enucleated trachea in accordance with the Magnus method in the same manner as in Test Example 1. It turns out that the compounds according to the present invention are effective on the contraction by this agent.

Row | SMILES | inhibition in vivo at 100 mg/kg [1] | inhibition in vivo at 100 mg/kg [2] | IC50 (trachea [3]) | IC50 (trachea [4]) | IC50 (trachea [5])
1 | CCC(C)N1CCc2cnc3c(C#N)cnn3c21 (stereo not shown) [Compound 2, 8-sec-butyl-3-cyano-6,7-dihydro-8H-pyrrolo[3,2-e]pyrazolo[1,5-a]pyrimidine] | 50% | 52.2% | 6.31 µM | 19.1 µM | 
2 | N#Cc1cnn2c3c(c(Cl)nc12)CCN3C1CCCC1 [Compound 3, 5-chloro-3-cyano-8-cyclopentyl-6,7-dihydro-8H-pyrrolo[3,2-e]pyrazolo[1,5-a]pyrimidine] | 22.8% | 7.7% |  |  | 
3 | Cn1c(=O)c2[nH]cnc2n(C)c1=O [Theophylline, theophylline, reference compound] | 39.5% | 37.7% | 977 µM | 2950 µM | 112 µM
4 | CC(C)(C)N1CCc2c(Cl)nc3c(C#N)cnn3c21 [Compound 15, 8-tert-butyl-5-chloro-3-cyano-6,7-dihydro-8H-pyrrolo[3,2-e]pyrazolo[1,5-a]pyrimidine] | 36.5% | 25.8% |  |  | 
5 | CCC(C)N1CCc2c(Cl)nc3c(C#N)cnn3c21 (stereo not shown) [Compound 4, 8-sec-butyl-5-chloro-3-cyano-6,7-dihydro-8H-pyrrolo[3,2-e]pyrazolo[1,5-a]pyrimidine] | 33.2% | 24.7% |  |  | 
6 | CCC(C)N1CCc2c(N)nc3c(C#N)cnn3c21 (stereo not shown) [Compound 7, 5-amino-8-sec-butyl-3-cyano-6,7-dihydro-8H-pyrrolo[3,2-e]pyrazolo[1,5-a]pyrimidine] | 36.5% | 49.8% | 15.5 µM | 18.2 µM | 3.72 µM
7 | CC(C)(C)N1CCc2cnc3c(C#N)cnn3c21 [Compound 14, 8-tert-butyl-3-cyano-6,7-dihydro-8H-pyrrolo[3,2-e]pyrazolo[1,5-a]pyrimidine] | 40.4% | 8.7% |  |  | 
8 | N#Cc1cnn2c3c(cnc12)CCN3C1CCCC1 [Compound 1, 3-cyano-8-cyclopentyl-6,7-dihydro-8H-pyrrolo[3,2-e]pyrazolo[1,5-a]pyrimidine] | 33.4% | 22.2% |  |  | 
9 | N#Cc1cnn2c3c(c(N)nc12)CCN3C1CCCCC1 [Compound 6, 5-amino-3-cyano-8-cyclohexyl-6,7-dihydro-8H-pyrrolo[3,2-e]pyrazolo[1,5-a]pyrimidine] |  |  | 16.2 µM | 22.4 µM | 11.2 µM
10 | N#Cc1cnn2c3c(c(N)nc12)CCN3C1CCCC1 [Compound 5, 5-amino-3-cyano-8-cyclopentyl-6,7-dihydro-8H-pyrrolo[3,2-e]pyrazolo[1,5-a]pyrimidine] | 32.1% | 52.9% | 12.6 µM | 18.6 µM | 4.07 µM
11 | CC(C)(C)N1CCc2c(N)nc3c(C#N)cnn3c21 [Compound 16, 5-amino-8-tert-butyl-3-cyano-6,7-dihydro-8H-pyrrolo[3,2-e]pyrazolo[1,5-a]pyrimidine] |  |  | 16.2 µM | 23.4 µM | 

From patent publication EP0976754B1, “REMEDIES/PREVENTIVES FOR RESPIRATORY DISEASES” (POLA CHEMICAL INDUSTRIES, INC., priority 1997, dated 1998)
